Data on seven compounds can be found in ChEMBL document CHEMBL6078649, “Discovery of Chalcone Derivatives as Bifunctional Molecules with Anti-SARS-CoV-2 and Anti-inflammatory Activities” (J Nat Prod, 2024).

Some results are limits rather than exact numbers.

Data set [1] relates to RAW264.7. In words: Anti-inflammatory activity against mouse RAW264.7 cells assessed as inhibition of LPS-induced NO production at 1 uM preincubated for 1 hr followed by LPS treatment measured after 24 hrs relative to control. Format: functional. The note with it: time 25 hrs.
Data set [2] can be described thus: Cytotoxicity against human Huh-7 cells harboring viral replicon/EGFP/Neo genes assessed as cell viability at 50 uM incubated for 24 hrs by Cell Titer Glo assay relative to control. The following applies: read-out: Activity. In kind it is toxicity, cell-based.
Data set [3] can be described thus: Cytotoxicity against mouse RAW264.7 cells assessed as cell viability at 10 uM incubated for 24 hrs by CCK8 assay relative to control. Format: toxicity, cell-based. The following applies: read-out: Activity. (In general: Tetrazolium dyes change colour on reduction, which living cells bring about.)
The target in data set [4] is Replicase polyprotein 1ab (Severe acute respiratory syndrome coronavirus 2, UniProt P0DTD1).
Data set [5] can be described thus: Cytotoxicity against mouse RAW264.7 cells assessed as cell viability at 50 uM incubated for 24 hrs by CCK8 assay relative to control. Format: toxicity, cell-based. The following applies: read-out: Activity.
Data set [6] in a line: Cytotoxicity against mouse RAW264.7 cells assessed as cell viability at 1 uM incubated for 24 hrs by CCK8 assay relative to control. In kind it is toxicity, cell-based. The note with it: read-out: Activity.
Data set [7] in a line: Cytotoxicity against human Huh-7 cells harboring viral replicon/EGFP/Neo genes assessed as cell viability incubated for 24 hrs by Cell Titer Glo assay. In kind it is toxicity, cell-based. In general terms: Replicon systems follow genome replication, usually without infectious particles.
The nature of data set [8]: Cytotoxicity against human Huh-7 cells harboring viral replicon/EGFP/Neo genes assessed as cell viability at 5 uM incubated for 24 hrs by Cell Titer Glo assay relative to control. The following applies: read-out: Activity. In kind it is toxicity, cell-based.
In data set [9] the target is Replicase polyprotein 1ab (Severe acute respiratory syndrome coronavirus 2) (UniProt P0DTD1). In words: Inhibition of SARS-CoV-2 3CLPro using DabcylKNSTLQSGLRK-Edans as substrate at 50 uM preincubated for 30 mins followed by substrate addition measured after 20 mins by FRET assay relative to control. The following applies: time 50.0 min.
The subject of data set [10] is RAW264.7. Nature of the data set: Anti-inflammatory activity against mouse RAW264.7 cells assessed as inhibition of LPS-induced NO production at 10 uM preincubated for 1 hr followed by LPS treatment measured after 24 hrs relative to control. Format: functional. The note with it: time 25 hrs.
For data set [11], the target named is Replicase polyprotein 1ab (Severe acute respiratory syndrome coronavirus 2) (UniProt P0DTD1). In words: Inhibition of SARS-CoV-2 3CLPro using DabcylKNSTLQSGLRK-Edans as substrate at 5 uM preincubated for 30 mins followed by substrate addition measured after 20 mins by FRET assay relative to control. The note with it: time 50.0 min.

Usually inhibition stands for the drop in the measured response relative to a control, in per cent. The IC50 is the concentration that gives 50% inhibition. Low readings indicate inhibition by little substance, high ones a need for much substance. The CC50 is the concentration at which the toxic effect on the cells reaches its halfway point. Turning to `O=C(CCc1cc(O)c(O)c(O)c1)c1ccc(F)cc1`, the inhibition at 1 µM in the data set on RAW264.7 [1] came out at 20.8%. The viability at 24 h, 50 µM was found to be 92.7% in data set [2] and 87.6% in data set [5]. Moreover, the viability at 24 h, 10 µM in data set [3] was 103%. This compound also gave an IC50 in [4] of 1770 nM. Besides, the viability at 24 h, 1 µM in data set [6] stood at 117%. For the same compound, the CC50 at 24 h in [7] was more than 100000 nM. In addition, in data set [8], the viability at 24 h, 5 µM came out at 110%. The inhibition in data set [9] is 6.3%; in data set [11], 21.4%. Also, the inhibition at 10 µM in the data set on RAW264.7 [10] is 54.1%.

Regarding `O=C(/C=C/c1c(Cl)c(O)c(O)c(O)c1Cl)c1ccc(-c2ccc(F)cc2)cc1`, in the data set with RAW264.7 [1], the inhibition at 1 µM was 39.5%. Further, the values for the viability at 24 h, 50 µM in data set [2] and in data set [5] were 10.2% and 11.2%, respectively. Also, the viability at 24 h, 10 µM in data set [3] came to 33.1%. The same compound displayed an IC50 in data set [4] of 1070 nM. Besides, in [6], the viability at 24 h, 1 µM turned out to be 55.5%. Moreover, the viability at 24 h, 5 µM in data set [8] worked out at 86.5%. Besides, the inhibition in data set [9] is 0.6%; in data set [11], -0.6%. The inhibition at 10 µM in the data set with RAW264.7 [10] stood at 89.4%.

Regarding `O=C(/C=C/c1c(Cl)c(O)c(O)c(O)c1Cl)c1ccc([N+](=O)[O-])cc1`, in the data set with RAW264.7 [1], the inhibition at 1 µM amounted to 2.1%. Further, the figures for the viability at 24 h, 50 µM in data set [2] and in data set [5] were 74.7% and 77.4%, respectively. Moreover, the viability at 24 h, 10 µM in data set [3] is 110%. The IC50 in data set [4] was determined as 276 nM. In addition, the viability at 24 h, 1 µM in [6] stood at 115%. Further, the viability at 24 h, 5 µM in data set [8] came out at 110%. Besides, the inhibition in [9] is -0.2%; in data set [11] it was 0.6%. In the data set with RAW264.7 [10], the inhibition at 10 µM was 70.7%.

Consider `O=C(/C=C/c1c(Cl)c(O)c(O)c(O)c1Cl)c1ccccc1`, for which the inhibition at 1 µM in the data set on RAW264.7 [1] worked out at 14.6%. For the same compound, the viability at 24 h, 50 µM in data set [2] is 64.2%; in [5] it was 96.9%. Besides, the viability at 24 h, 10 µM in data set [3] turned out to be 66.8%. For the same compound, the IC50 in data set [4] is 143 nM. The viability at 24 h, 1 µM in data set [6] stood at 95.5%. The viability at 24 h, 5 µM in data set [8] stood at 105%. Also, the inhibition was -0.3% in [9] and 1% in data set [11]. Besides, in the data set on RAW264.7 [10], the inhibition at 10 µM was determined as 39.5%.

For the compound `O=C(/C=C/c1c(Cl)c(O)c(O)c(O)c1Cl)c1ccc(C(F)(F)F)cc1`, the inhibition at 1 µM in the data set on RAW264.7 [1] stood at 52%. Also, the viability at 24 h, 50 µM in data set [2] is 43.8%; in data set [5], 6.9%. Further, in data set [3], the viability at 24 h, 10 µM is 36.6%. This compound returned an IC50 in [4] of 442 nM. The viability at 24 h, 1 µM in data set [6] amounted to 76.7%. Besides, the viability at 24 h, 5 µM in [8] was 101%. In addition, the inhibition was 1.5% in data set [9] and 2% in data set [11]. Further, the inhibition at 10 µM with RAW264.7 [10] was 70.7%.

For the compound `O=C(/C=C/c1c(Cl)c(O)c(O)c(O)c1Cl)c1ccco1`, the inhibition at 1 µM in the data set on RAW264.7 [1] turned out to be 45.7%. Also, the results for the viability at 24 h, 50 µM in data set [2] and in data set [5] were 70.7% and 94.7%, respectively. Besides, in [3], the viability at 24 h, 10 µM came to 82.2%. Moreover, the IC50 in [4] came to 95.5 nM. In data set [6], the viability at 24 h, 1 µM amounted to 82%. Further, the viability at 24 h, 5 µM in data set [8] was determined as 102%. The figures for the inhibition in data set [9] and in data set [11] were -0.7% and -1.1%, respectively. In addition, in the data set on RAW264.7 [10], the inhibition at 10 µM amounted to 62.4%.

In the case of `O=C(/C=C/c1c(Cl)c(O)c(O)c(O)c1Cl)c1c(Cl)c(O)c(O)c(O)c1Cl`, the inhibition at 1 µM in the data set on RAW264.7 [1] was 22.9%. Besides, the viability at 24 h, 50 µM came out at 99.3% in data set [2] and 82.4% in data set [5]. The viability at 24 h, 10 µM in [3] is 37%. For the same compound, in [4], it took 115 nM to reach half-maximal inhibition (IC50). Also, the viability at 24 h, 1 µM in data set [6] worked out at 51.2%. In data set [8], the viability at 24 h, 5 µM is 111%. Also, the inhibition in data set [9] was 0.2%; in [11], 0%. For the same compound, the inhibition at 10 µM in the data set with RAW264.7 [10] is 76.9%.
